What was measured:
Assay in all cases: Kinase selectivity, DiscoverX scanMAX Kinase assay panel (% control)
Type in all cases: binding
[1] = biological target: T1, kinases of the scanMAX Kinase assay panel (Homo sapiens, UniProt Q9BZL6); conditions: PRKD2; 1 uM
T1 construct: purchased DiscoverX Co. (contract measurement) scanMAX Kinase assay panel
T1 sequence (Q9BZL6 1-878): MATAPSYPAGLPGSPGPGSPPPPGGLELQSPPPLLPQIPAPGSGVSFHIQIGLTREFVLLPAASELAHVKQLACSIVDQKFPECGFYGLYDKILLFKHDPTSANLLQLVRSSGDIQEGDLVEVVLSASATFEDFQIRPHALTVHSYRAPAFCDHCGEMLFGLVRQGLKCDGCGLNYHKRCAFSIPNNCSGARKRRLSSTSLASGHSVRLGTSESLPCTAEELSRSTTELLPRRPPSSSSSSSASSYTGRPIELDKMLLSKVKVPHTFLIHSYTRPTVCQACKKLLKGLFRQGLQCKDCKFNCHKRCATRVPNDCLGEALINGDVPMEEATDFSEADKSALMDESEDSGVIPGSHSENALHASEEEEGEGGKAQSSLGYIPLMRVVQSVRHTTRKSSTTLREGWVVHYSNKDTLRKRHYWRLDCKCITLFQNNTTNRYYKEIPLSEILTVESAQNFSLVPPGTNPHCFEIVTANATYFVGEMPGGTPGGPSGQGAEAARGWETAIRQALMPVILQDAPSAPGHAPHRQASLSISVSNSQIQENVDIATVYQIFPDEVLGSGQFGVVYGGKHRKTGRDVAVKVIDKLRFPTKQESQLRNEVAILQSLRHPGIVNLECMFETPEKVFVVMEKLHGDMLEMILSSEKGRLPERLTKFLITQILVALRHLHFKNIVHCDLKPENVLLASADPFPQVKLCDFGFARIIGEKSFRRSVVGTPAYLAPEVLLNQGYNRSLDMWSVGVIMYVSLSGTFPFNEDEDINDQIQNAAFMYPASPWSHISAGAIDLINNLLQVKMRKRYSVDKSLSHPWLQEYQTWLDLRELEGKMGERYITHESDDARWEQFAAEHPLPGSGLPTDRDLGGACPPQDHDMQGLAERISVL
In short: (§1)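 Compounds were tested at 1 uM (in DMSO) against each panel kinase. % control was calculated as (compound − positive control)/(negative control − positive control)×100, where the positive control gives 0% and DMSO gives 100%. Activity toward a kinase was called at % control <35%.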

[2] = biological target: T2, kinases of the scanMAX Kinase assay panel (Homo sapiens, UniProt Q16832); conditions: DDR2; 1 uM
T2 construct: purchased DiscoverX Co. (contract measurement) scanMAX Kinase assay panel
T2 sequence (Q16832 22-855): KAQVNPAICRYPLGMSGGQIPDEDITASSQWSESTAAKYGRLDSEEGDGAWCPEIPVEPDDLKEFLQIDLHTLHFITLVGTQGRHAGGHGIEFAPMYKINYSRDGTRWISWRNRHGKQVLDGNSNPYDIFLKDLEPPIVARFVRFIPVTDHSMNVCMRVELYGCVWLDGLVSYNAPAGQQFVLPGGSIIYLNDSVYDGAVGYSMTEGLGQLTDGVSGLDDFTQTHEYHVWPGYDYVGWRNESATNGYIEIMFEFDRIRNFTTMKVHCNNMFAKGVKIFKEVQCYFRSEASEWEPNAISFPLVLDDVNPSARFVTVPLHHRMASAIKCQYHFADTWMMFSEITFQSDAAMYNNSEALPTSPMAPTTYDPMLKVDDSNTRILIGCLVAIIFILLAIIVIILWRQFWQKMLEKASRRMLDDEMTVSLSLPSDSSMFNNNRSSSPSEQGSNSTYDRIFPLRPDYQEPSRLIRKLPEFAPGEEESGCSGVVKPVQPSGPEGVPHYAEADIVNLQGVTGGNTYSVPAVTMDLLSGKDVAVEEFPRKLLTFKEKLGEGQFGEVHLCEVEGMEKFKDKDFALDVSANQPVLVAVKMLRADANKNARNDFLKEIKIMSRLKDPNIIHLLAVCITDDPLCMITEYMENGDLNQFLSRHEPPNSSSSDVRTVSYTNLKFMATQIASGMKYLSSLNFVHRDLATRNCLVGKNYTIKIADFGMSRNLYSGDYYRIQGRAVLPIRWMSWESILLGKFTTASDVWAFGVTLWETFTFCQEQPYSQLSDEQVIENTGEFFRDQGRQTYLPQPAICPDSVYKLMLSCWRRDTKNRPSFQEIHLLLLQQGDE
In short: as §1

[3] = biological target: T3, kinases of the scanMAX Kinase assay panel (Homo sapiens, UniProt P41240); conditions: CSK; 1 uM
T3 construct: purchased DiscoverX Co. (contract measurement) scanMAX Kinase assay panel
T3 sequence (P41240 whole entry): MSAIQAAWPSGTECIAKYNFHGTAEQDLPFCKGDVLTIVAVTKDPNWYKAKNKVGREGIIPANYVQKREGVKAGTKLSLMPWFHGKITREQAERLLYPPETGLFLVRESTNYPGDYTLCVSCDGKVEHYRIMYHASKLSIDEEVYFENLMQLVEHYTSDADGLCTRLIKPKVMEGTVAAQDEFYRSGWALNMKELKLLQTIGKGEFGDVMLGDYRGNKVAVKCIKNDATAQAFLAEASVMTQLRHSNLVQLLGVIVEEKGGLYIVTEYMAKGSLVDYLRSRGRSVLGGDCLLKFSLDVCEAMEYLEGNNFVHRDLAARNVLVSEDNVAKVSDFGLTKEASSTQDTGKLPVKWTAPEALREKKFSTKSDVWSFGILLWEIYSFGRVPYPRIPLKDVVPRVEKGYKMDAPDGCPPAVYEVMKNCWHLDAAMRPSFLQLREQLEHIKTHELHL
In short: as §1

[4] = biological target: T4, kinases of the scanMAX Kinase assay panel (Homo sapiens, UniProt P78362); conditions: kinase SRPK2; 1 uM in DMSO
T4 construct: purchased DiscoverX Co. (contract measurement) scanMAX Kinase assay panel
T4 sequence (P78362 whole entry): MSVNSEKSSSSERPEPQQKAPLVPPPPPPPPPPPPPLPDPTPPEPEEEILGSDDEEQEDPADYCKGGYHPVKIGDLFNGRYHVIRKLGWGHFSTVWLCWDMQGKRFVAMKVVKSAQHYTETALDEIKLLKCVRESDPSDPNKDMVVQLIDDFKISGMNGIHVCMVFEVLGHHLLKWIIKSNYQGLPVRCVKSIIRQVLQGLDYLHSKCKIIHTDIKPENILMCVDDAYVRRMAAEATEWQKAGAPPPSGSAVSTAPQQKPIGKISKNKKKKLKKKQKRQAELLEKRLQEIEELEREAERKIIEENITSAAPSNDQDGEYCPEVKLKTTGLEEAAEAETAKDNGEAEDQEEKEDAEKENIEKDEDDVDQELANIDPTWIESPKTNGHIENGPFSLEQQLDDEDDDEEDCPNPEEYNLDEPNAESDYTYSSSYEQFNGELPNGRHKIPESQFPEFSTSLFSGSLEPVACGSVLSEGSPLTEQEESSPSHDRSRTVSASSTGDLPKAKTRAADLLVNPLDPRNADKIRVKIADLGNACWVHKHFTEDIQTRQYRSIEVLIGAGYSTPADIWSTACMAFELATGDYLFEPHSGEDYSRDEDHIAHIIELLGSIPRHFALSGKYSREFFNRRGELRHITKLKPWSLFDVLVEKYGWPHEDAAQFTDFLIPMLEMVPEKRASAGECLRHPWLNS
In short: as §1

[5] = biological target: T5, kinases of the scanMAX Kinase assay panel (Homo sapiens, UniProt P07949, M918T); conditions: kinase RET(M918T); 1 uM in DMSO
T5 construct: purchased DiscoverX Co. (contract measurement) scanMAX Kinase assay panel
T5 sequence (P07949 29-1114 M918T): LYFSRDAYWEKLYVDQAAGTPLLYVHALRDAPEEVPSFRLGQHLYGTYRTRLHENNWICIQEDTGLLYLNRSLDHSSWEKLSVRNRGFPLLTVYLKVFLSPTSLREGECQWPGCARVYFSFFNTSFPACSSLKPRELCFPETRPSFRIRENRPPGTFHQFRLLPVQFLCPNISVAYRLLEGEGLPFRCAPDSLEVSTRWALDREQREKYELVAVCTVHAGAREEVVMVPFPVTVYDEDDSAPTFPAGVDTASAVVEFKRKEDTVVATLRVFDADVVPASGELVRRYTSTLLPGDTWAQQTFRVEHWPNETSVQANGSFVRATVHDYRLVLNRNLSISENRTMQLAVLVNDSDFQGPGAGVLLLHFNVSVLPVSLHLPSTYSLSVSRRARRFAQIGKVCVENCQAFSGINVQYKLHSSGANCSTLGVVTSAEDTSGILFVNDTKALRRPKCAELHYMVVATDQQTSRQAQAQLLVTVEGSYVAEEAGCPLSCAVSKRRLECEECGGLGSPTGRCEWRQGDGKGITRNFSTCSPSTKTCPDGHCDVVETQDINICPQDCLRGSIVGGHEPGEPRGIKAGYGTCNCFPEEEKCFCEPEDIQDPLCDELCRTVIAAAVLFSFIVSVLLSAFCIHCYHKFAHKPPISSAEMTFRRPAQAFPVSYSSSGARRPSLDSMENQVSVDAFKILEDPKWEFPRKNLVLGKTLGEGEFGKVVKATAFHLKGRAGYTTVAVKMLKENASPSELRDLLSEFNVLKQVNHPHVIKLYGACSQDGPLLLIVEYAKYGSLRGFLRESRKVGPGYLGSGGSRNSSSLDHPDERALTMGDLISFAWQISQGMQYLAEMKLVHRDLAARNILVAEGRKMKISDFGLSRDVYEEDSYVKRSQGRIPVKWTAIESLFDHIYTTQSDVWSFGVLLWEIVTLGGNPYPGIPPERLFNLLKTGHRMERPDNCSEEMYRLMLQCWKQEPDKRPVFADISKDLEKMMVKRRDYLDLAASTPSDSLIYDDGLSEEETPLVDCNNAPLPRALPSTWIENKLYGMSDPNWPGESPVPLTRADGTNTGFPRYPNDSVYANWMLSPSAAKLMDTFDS
In short: as §1

[6] = biological target: T6, kinases of the scanMAX Kinase assay panel (Homo sapiens, UniProt P07949, V804M); conditions: kinase RET(V804M); 1 uM in DMSO
T6 construct: purchased DiscoverX Co. (contract measurement) scanMAX Kinase assay panel
T6 sequence (P07949 29-1114 V804M): as the sequence (P07949 29-1114 M918T) above, with V776M, T890M counted along it
In short: as §1

Structure (SMILES) | remaining binding at 1 µM [1] [%] | remaining binding at 1 µM [2] [%] | remaining binding at 1 µM [3] [%] | remaining binding at 1 µM [4] [%] | remaining binding at 1 µM [5] [%] | remaining binding at 1 µM [6] [%]
CNc1nc(Nc2ccc(C(=O)N3CCOCC3)cc2OC)nc2[nH]cc(C#N)c12 [Example 1, 2-((2-methoxy-4-(morpholine-4-carbonyl)phenyl)amino)-4-(methylamino)-7H-pyrrolo[2,3-d]pyrimidine-5-carbonitrile] | 28 | 96 | 99 | 100 | 94 | 89
CC1(Nc2nc(Nc3cnn([C@H]4CCN(C5COC5)C[C@@H]4F)c3Cl)nc3[nH]cc(C#N)c23)CC1 [Example 52, 2-((5-chloro-1-((3S,4S)-3-fluoro-1-(oxetane-3-yl)piperidine-4-yl)-1H-pyrazole-4-yl)amino)((1-methylcyclopropyl)amino)-7H-pyrrolo[2,3-d]pyrimidine-5-carbonitrile] | 9.1 | 20 | 33 | 58 | 0 | 0
CCNc1nc(Nc2ccc(C(=O)N3CCC(N4CCOCC4)CC3)cc2OC)nc2[nH]cc(C(F)(F)F)c12 [Example 104, (4-((4-(ethylamino)-5-(trifluoromethyl)-7H-pyrrolo[2,3-d]pyrimidine-2-yl)amino)-3-methoxyphenyl)(4-morpholinopiperidine-1-yl)methanone] | 16 | 100 | 85 | 74 | 96 | 87

From patent US11208412B2 (DAEGU-GYEONGBUK MEDICAL INNOVATION FOUNDATION, priority 2017, dated 2021)
